In patent publication US9120749B2, “Quinoline derivatives and MELK inhibitors containing the same” (ONCOTHERAPY SCIENCE, INC., priority 2010, dated 2015):
Where a name gives a salt, the structure may show the parent alone. Read-outs that look alike come from different tables or passages of the source.

Assays:
[1] = molecular target: MELK (Homo sapiens, UniProt Q14680); assay: Kinase assay: MELK activity, phosphorylation of FITC-labeled histone H3 peptide measured by IMAP fluorescence polarization; type: biochemical; conditions: read-out: IC50 (μM) (kinase assay)
MELK, sequence (Q14680 whole entry, looked up): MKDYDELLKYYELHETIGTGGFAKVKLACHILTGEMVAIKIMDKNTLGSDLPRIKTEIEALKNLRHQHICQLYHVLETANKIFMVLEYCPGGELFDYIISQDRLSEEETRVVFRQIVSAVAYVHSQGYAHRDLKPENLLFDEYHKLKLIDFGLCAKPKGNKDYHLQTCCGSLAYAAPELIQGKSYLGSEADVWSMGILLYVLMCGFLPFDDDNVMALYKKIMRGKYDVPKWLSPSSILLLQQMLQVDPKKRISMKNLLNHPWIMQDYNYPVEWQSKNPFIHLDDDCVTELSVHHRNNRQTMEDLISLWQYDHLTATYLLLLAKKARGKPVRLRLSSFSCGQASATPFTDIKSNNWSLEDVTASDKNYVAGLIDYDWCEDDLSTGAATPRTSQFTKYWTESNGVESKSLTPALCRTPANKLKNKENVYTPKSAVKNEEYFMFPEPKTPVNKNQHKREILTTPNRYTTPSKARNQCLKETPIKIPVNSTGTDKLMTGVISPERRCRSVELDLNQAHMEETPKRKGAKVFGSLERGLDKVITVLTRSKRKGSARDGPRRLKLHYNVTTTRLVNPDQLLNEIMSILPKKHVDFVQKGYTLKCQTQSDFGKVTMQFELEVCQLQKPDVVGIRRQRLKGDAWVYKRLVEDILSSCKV
Method in brief: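 Kinase reactions ran with or without test compound (final DMSO 1%) on a fluorescein-tagged H3 peptide. Progressive binding solution was added to terminate them. After a half-hour room-temperature incubation, polarization was measured.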

[2] = tested on: T47D cells; assay: Cell-based assay: anti-proliferative activity, Cell Counting Kit-8, 72 hours (T47D)
Method in brief: (§1)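 First, lysates underwent western blotting with anti-MELK antibody to establish expression. Next, cells went into 96-well plates. Then candidate inhibitors were added. Finally, viability was determined by CCK-8 at 72 h and IC50 computed.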

[3] = tested on: A549 cells; assay: Cell-based assay: anti-proliferative activity, Cell Counting Kit-8, 72 hours (A549); conditions: 72 hours
Method in brief: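 A549 cells seeded in 96-well plates and exposed to candidate inhibitors for 72 hours. Growth measured with Cell Counting Kit-8; IC50 values calculated from the dose response.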

[4] = tested on: HT-1197 cells; assay: Cell-based assay: anti-proliferative activity, Cell Counting Kit-8, 72 hours (HT-1197, negative control without MELK expression); conditions: 72 hours
Method in brief: as §1

[5] = tested on: 22Rv1; assay: Cell-based assay: anti-proliferative activity, Cell Counting Kit-8, 72 hours (22Rv1); conditions: Homo sapiens; 22Rv1 cells
Description: Active candidate inhibitors against MELK were evaluated for their target-specific cytotoxicity using T47D, A549, BT-549, and HT-1197 cells was used for negative control. 100 micro-L of cell suspension was seeded onto 96-well microtiter plate (ViewPlate-96FTC, PerkinElmer). The initial cell concentration of T47D, A549, BT-549, and HT-1197 were 3,000 cells/well, 2,000 cells/well and 2,500 cells/well, respectively. Cellular growth was determined using Cell Counting Kit-8 (DOJINDO) at 72 hours after the exposure of the candidate inhibitors. […] Accurate IC50 values were calculated as described previously.

[6] = tested on: DU4475; assay: Cell-based assay: anti-proliferative activity, Cell Counting Kit-8, 72 hours (DU4475); conditions: DU4475 cells; hydrochloride
[7] = tested on: 22Rv1 cells; assay: Cell-based assay: anti-proliferative activity, Cell Counting Kit-8, 72 hours (22Rv1); conditions: Homo sapiens
[8] = tested on: DU4475 cells; assay: Cell-based assay: anti-proliferative activity, Cell Counting Kit-8, 72 hours (DU4475); conditions: Homo sapiens, DU-4475
[9] = HT1197 cells (negative control, no MELK expression), hydrochloride
[10] = MELK kinase assay, IMAP fluorescence polarization, 50 micro-M ATP
[11] = Homo sapiens, HT1197, 72 h, HT1197 cells (negative control)

CN(C)Cc1ccc(Nc2c(S(C)(=O)=O)cnc3ccc(-c4cc(Cl)c(O)c(Cl)c4)cc23)cc1 [Example 401, 2,6-dichloro-4-(4-(4-((dimethylamino)methyl)phenylamino)-3-(methylsulfonyl)quinolin-6-yl)phenol hydrochloride]
IC50 ([1]; 50 micro-M ATP, FITC-labeled histone H3 peptide substrate, IMAP fluorescence polarization, hydrochloride): 0.0055 µM
IC50 ([2]; 72 hours, hydrochloride): 0.19 µM
IC50 ([3]; hydrochloride): 0.44 µM
IC50 ([4]; Homo sapiens, HT1197, 72 h, HT1197 cells (negative control, no MELK expression)): 2.2 µM
IC50 [5]: 0.52 µM
IC50 [6]: 0.11 µM

NCc1ccc(Nc2c(C(=O)C3CC3)cnc3ccc(-c4cc(F)c(O)c(Cl)c4)cc23)cc1 [Example 505, (4-(4-(aminomethyl)phenylamino)-6-(3-chloro-5-fluoro-4-hydroxyphenyl)quinolin-3-yl)(cyclopropyl)methanone hydrochloride]
IC50 ([1]; hydrochloride): 0.0027 µM
IC50 ([2]; 72 hours, hydrochloride): 0.063 µM
IC50 ([3]; hydrochloride): 0.067 µM
IC50 [4, 9]: 0.4 µM
IC50 [5]: 0.088 µM
IC50 [6]: 0.026 µM

COc1cc(-c2ccc3ncc(C(=O)C4CC4)c(N[C@H]4CC[C@H](CN)CC4)c3c2)cc(Cl)c1O [Example 494, (4-(4-(aminomethyl)cyclohexylamino)-6-(3-chloro-4-hydroxy-5-methoxyphenyl)quinolin-3-yl)(cyclopropyl)methanone hydrochloride]
IC50 ([1]; hydrochloride): 0.0016 µM
IC50 ([2]; 72 hours, hydrochloride): 0.081 µM
IC50 ([3]; hydrochloride): 0.085 µM
IC50 [4, 9]: 0.48 µM
IC50 [5]: 0.13 µM
IC50 [6]: 0.055 µM

NCc1ccc(Nc2c(C(=O)C3CC3)cnc3ccc(-c4cc(Cl)c(O)c(Cl)c4)cc23)cc1 [Example 508, (4-(4-(aminomethyl)phenylamino)-6-(3,5-dichloro-4-hydroxyphenyl)quinolin-3-yl)(cyclopropyl)methanone hydrochloride]
IC50 ([1]; hydrochloride): 0.0017 µM
IC50 ([2]; 72 hours, hydrochloride): 0.078 µM
IC50 ([3]; hydrochloride): 0.067 µM
IC50 [4, 9]: 0.49 µM
IC50 [5]: 0.099 µM
IC50 [6]: 0.02 µM

CN1CCC(n2cc(Nc3c(S(C)(=O)=O)cnc4ccc(-c5cc(F)c(O)c(Cl)c5)cc34)cn2)CC1 [Example 900, 2-chloro-6-fluoro-4-(4-((1-(1-methyl-piperidin-4-yl)-1H-pyrazol-4-yl)amino)-3-(methylsulfonyl)quinolin-6-yl)phenol hydrochloride]
IC50 [1, 10]: 0.0032 µM
IC50 ([2]; Homo sapiens, T47D, 72 h): 1.6 µM
IC50 ([3]; Homo sapiens, A549, 72 h): 10 µM
IC50 [4, 11]: 10 µM
IC50 [7]: 3.1 µM
IC50 [8]: 0.54 µM

CC(=O)c1cnc2ccc(-c3ccc4cc(O)ccc4c3)cc2c1N[C@H]1CC[C@H](CN(C)C)CC1 [Example 929, 1-(4-((1R,4R)-4-((dimethylamino)methyl)cyclohexyl)amino)-6-(6-hydroxynaphthalen-2-yl)quinolin-3-yl)ethanone hydrochloride]
IC50 [1, 10]: 0.064 µM
IC50 ([2]; Homo sapiens, T47D, 72 h): 3.3 µM
IC50 ([3]; Homo sapiens, A549, 72 h): 0.87 µM
IC50 [4, 11]: 3.9 µM
IC50 [7]: 0.71 µM
IC50 [8]: 2.8 µM

CN(C)C[C@H]1CC[C@H](Nc2c(C(=O)C(C)(C)C)cnc3ccc(-c4cc(F)c(O)c(Cl)c4)cc23)CC1 [Example 919, 1-(6-(3-chloro-5-fluoro-4-hydroxy-phenyl)-4-((1R,4R)-4-((dimethylamino)methyl)cyclohexyl)amino)quinolin-3-yl)-2,2-dimethylpropan-1-one hydrochloride]
IC50 [1, 10]: 0.034 µM
IC50 ([2]; Homo sapiens, T47D, 72 h): 1.9 µM
IC50 ([3]; Homo sapiens, A549, 72 h): 4.3 µM
IC50 [4, 11]: 6.4 µM
IC50 [7]: 3.5 µM
IC50 [8]: 2.5 µM

CC(=O)c1cnc2ccc(-c3cc(Cl)c(O)c(Cl)c3)cc2c1N[C@H]1CC[C@H](NC(=O)[C@H](C)N)CC1 [Example 886]
IC50 [1, 10]: 0.00066 µM
IC50 ([2]; Homo sapiens, T47D, 72 h): 0.045 µM
IC50 ([3]; Homo sapiens, A549, 72 h): 0.64 µM
IC50 [4, 11]: 11 µM
IC50 [7]: 0.088 µM
IC50 [8]: 0.016 µM

CC(=O)c1cnc2ccc(-c3ccc(O)cc3)cc2c1N[C@H]1CC[C@H](CN(C)C)CC1 [Example 935, 1-(4-(1R,4R)-4-((dimethylamino)methyl)cyclohexylamino)-6-(4-hydroxyphenyl)quinolin-3-yl) ethanone dihydrochloride]
IC50 [1, 10]: 0.08 µM
IC50 ([2]; Homo sapiens, T47D, 72 h): 1.6 µM
IC50 ([3]; Homo sapiens, A549, 72 h): 0.86 µM
IC50 [4, 11]: 4.3 µM
IC50 [7]: 0.53 µM
IC50 [8]: 1.5 µM

CC(=O)c1cnc2cc(F)c(-c3cc(Cl)c(O)c(Cl)c3)cc2c1N[C@H]1CC[C@H](CN2CCCC2)CC1 [Example 923, 1-(6-(3,5-dichloro-4-hydroxyphenyl)-7-fluoro-4-((1R,4R)-4-(pyrrolidin-1-ylmethyl)cyclohexyl)amino)quinolin-3-yl)ethanone hydrochloride]
IC50 [1, 10]: 0.007 µM
IC50 ([2]; Homo sapiens, T47D, 72 h): 0.63 µM
IC50 ([3]; Homo sapiens, A549, 72 h): 0.39 µM
IC50 [4, 11]: 2.5 µM
IC50 [7]: 0.29 µM
IC50 [8]: 0.2 µM

CCC(=O)c1cnc2ccc(-c3cc(Cl)c(O)c(Cl)c3)cc2c1Nc1ccc(N2CCC(N(C)C)C2)nc1 (stereo not drawn) [Example 863, 1-(6-(3,5-dichloro-4-hydroxyphenyl)-4-((6-(3-(dimethylamino)pyrrolidin-1-yl)pyridin-3-yl)amino)quinolin-3-yl)propan-1-one]
IC50 [1, 10]: 0.0039 µM
IC50 ([2]; Homo sapiens, T47D, 72 h): 0.44 µM
IC50 ([3]; Homo sapiens, A549, 72 h): 0.5 µM
IC50 [4, 11]: 14 µM
IC50 [7]: 0.59 µM
IC50 [8]: 0.31 µM

CC(=O)c1cnc2ccc(-c3cc(Cl)c(O)c(Cl)c3)cc2c1N[C@H]1CC[C@H](C(=O)N(C)C)CC1 [Example 865, (1r,4r)-4-((3-acetyl-6-(3,5-dichloro-4-hydroxyphenyl)quinolin-4-yl)amino)-N,N-dimethylcyclohexanecarboxamide hydrochloride]
IC50 [1, 10]: 0.0093 µM
IC50 ([2]; Homo sapiens, T47D, 72 h): 0.38 µM
IC50 ([3]; Homo sapiens, A549, 72 h): 0.86 µM
IC50 [4, 11]: 3.9 µM
IC50 [7]: 1.5 µM
IC50 [8]: 0.94 µM

CC(=O)c1cnc2ccc(-c3cc(Cl)c(O)c(Cl)c3)cc2c1N[C@H]1CC[C@H](NC(=O)[C@@H]2CCCN2)CC1 [Example 920, (S)—N-((1R,4S)-4-(3-acetyl-6-(3,5-dichloro-4-hydroxyphenyl)quinolin-4-ylamino)cyclohexyl)pyrrolidine-2-carboxamide]
IC50 [1, 10]: 0.0019 µM
IC50 ([2]; Homo sapiens, T47D, 72 h): 0.1 µM
IC50 ([3]; Homo sapiens, A549, 72 h): 0.86 µM
IC50 [4, 11]: 6.5 µM
IC50 [7]: 0.34 µM
IC50 [8]: 0.073 µM

CS(=O)(=O)c1cnc2ccc(-c3cc(F)c(O)c(Cl)c3)cc2c1Nc1cccc(CCN2CCCC2)c1 [Example 879, 2-chloro-6-fluoro-4-(3-(methylsulfonyl)-4-((3-(2-(pyrrolidin-1-yl)ethyl)phenyl)amino)quinolin-6-yl)phenol hydrochloride]
IC50 [1, 10]: 0.011 µM
IC50 ([2]; Homo sapiens, T47D, 72 h): 1.1 µM
IC50 ([3]; Homo sapiens, A549, 72 h): 3.8 µM
IC50 [4, 11]: 9 µM
IC50 [7]: 3 µM
IC50 [8]: 0.9 µM

CC(=O)c1cnc2ccc(-c3cc(F)c(O)c(Cl)c3)cc2c1N[C@H]1CC[C@H](NC(=O)[C@@H]2CCCN2)CC1 [Example 921, (S)—N-((1R,4S)-4-(3-acetyl-6-(3-chloro-5-fluoro-4-hydroxyphenyl)quinolin-4-ylamino)cyclohexyl)pyrrolidine-2-carboxamide]
IC50 [1, 10]: 0.012 µM
IC50 ([2]; Homo sapiens, T47D, 72 h): 0.048 µM
IC50 ([3]; Homo sapiens, A549, 72 h): 1.2 µM
IC50 [4, 11]: 10 µM
IC50 [7]: 0.21 µM
IC50 [8]: 0.068 µM

CC(=O)c1cnc2ccc(-c3ccc4nc[nH]c4c3)cc2c1Nc1cnn(C2CCN(C)CC2)c1 [Example 895, 1-(6-(1H-benzo[d]imidazol-6-yl)-4-((1-(1-methylpiperidin-4-yl)-1H-pyrazol-4-yl)amino)quinolin-3-yl)ethanone hydrochloride]
IC50 [1, 10]: 0.065 µM
IC50 ([2]; Homo sapiens, T47D, 72 h): 0.94 µM
IC50 ([3]; Homo sapiens, A549, 72 h): 4 µM
IC50 [4, 11]: 9.3 µM
IC50 [7]: 2.2 µM
IC50 [8]: 9.1 µM

CC(=O)c1cnc2ccc(-c3cc(Cl)c(O)c(Cl)c3)cc2c1N[C@H]1CC[C@H](NC(=O)C(N)C(C)C)CC1 (stereo partly drawn) [Example 915]
IC50 [1, 10]: 0.0031 µM
IC50 ([2]; Homo sapiens, T47D, 72 h): 0.053 µM
IC50 ([3]; Homo sapiens, A549, 72 h): 0.29 µM
IC50 [4, 11]: 3.5 µM
IC50 [7]: 0.099 µM
IC50 [8]: 0.062 µM

CC(N)C(=O)N[C@H]1CC[C@H](Nc2c(C(=O)C(C)(C)C)cnc3ccc(-c4cc(F)c(O)c(Cl)c4)cc23)CC1 (stereo partly drawn) [Example 932, 2-amino-N-(1R,4R)-4-((6-(3-chloro-5-fluoro-4-hydroxyphenyl)-3-pivaloyl-quinolin-4-yl)amino)cyclohexyl) propanamide hydrochloride]
IC50 [1, 10]: 0.047 µM
IC50 ([2]; Homo sapiens, T47D, 72 h): 0.71 µM
IC50 ([3]; Homo sapiens, A549, 72 h): 4.7 µM
IC50 [4, 11]: 7.6 µM
IC50 [7]: 1.6 µM
IC50 [8]: 1 µM

CS(=O)(=O)c1cnc2ccc(-c3cc(F)c(O)c(Cl)c3)cc2c1N[C@H]1CC[C@H](CN2CCCC2)CC1 [Example 891, 2-chloro-6-fluoro-4-(3-(methylsulfonyl)-4-((1R,4R)-4-(pyrrolidin-1-ylmethyl)cyclohexyl)amino)quinolin-6-yl)phenol hydrochloride]
IC50 [1, 10]: 0.0095 µM
IC50 ([2]; Homo sapiens, T47D, 72 h): 0.73 µM
IC50 ([3]; Homo sapiens, A549, 72 h): 1.3 µM
IC50 [4, 11]: 2.4 µM
IC50 [7]: 0.92 µM
IC50 [8]: 0.46 µM
